system: K-Ras G12C (NCI-H358 cells); experiment: Potency assay: pERK in NCI-H358 cells; assay type: cell-based, human; conditions: Homo sapiens, NCI-H358, 4 h, read-out: pERK EC50 (H358 KRAS G12C)
Experimental: The purpose of this assay is to measure the ability of test compounds to inhibit K-Ras in cells. […] This procedure measures a decrease in cellular pERK in response to test compounds. The procedure described below in NCI-H358 cells is applicable to K-Ras G12C.
Note: This protocol may be executed substituting other cell lines to characterize inhibitors of other RAS variants, including, for example, AsPC-1 (K-Ras G12D), Capan-1 (K-Ras G12V), or NCI-H1355 (K-Ras G13C).
NCI-H358 cells were grown and maintained using media and procedures recommended by the ATCC. On the day prior to compound addition, cells were plated in 384-well cell culture plates (40 μl/well) and grown overnight in a 37° C., 5% CO2 incubator. Test compounds were prepared in 10, 3-fold dilutions in DMSO, with a high concentration of 10 mM. On the day of assay, 40 nL of test compound was added to each well of cell culture plate using an Echo550 liquid handler (LabCyte®). Concentrations of test compound were tested in duplicate. After compound addition, cells were incubated 4 hours at 37° C., 5% CO2. Following incubation, culture medium was removed and cells were washed once with phosphate buffered saline.
In some experiments, cellular pERK level was determined using the AlphaLISA SureFire Ultra p-ERK1/2 Assay Kit (PerkinElmer). Cells were lysed in 25 μL lysis buffer, with shaking at 600 RPM at room temperature. […] After a 2-hour incubation in the dark, 5 μL donor mix was added, plate was sealed, and incubated 2 hours at room temperature. Signal was read on an Envision plate reader (PerkinElmer) using standard AlphaLISA settings. Analysis of raw data was carried out in Excel (Microsoft) and Prism (GraphPad). Signal was plotted vs. the decadal logarithm of compound concentration, and IC50 was determined by fitting a 4-parameter sigmoidal concentration response model.
In other experiments, cellular pERK was determined by In-Cell Western. […] Fixed cells were washed 4 times for 5 minutes with TBS containing 0.1% Triton X-100 (TBST) and then blocked with 100 μL Odyssey blocking buffer (LI-COR) for 60 minutes at room temperature. Primary antibody (PERK, CST-4370, Cell Signaling Technology) was diluted 1:200 in blocking buffer, and 50 μL was added to each well and incubated overnight at 4° C. Cells were washed 4 times for 5 minutes with TBST. Secondary antibody (IR-800CW rabbit, LI-COR, diluted 1:800) and DNA stain DRAQ5 (LI-COR, diluted 1:2000) were added and incubated 1-2 hours at room temperature. Cells were washed 4 times for 5 minutes with TBST. Plates were scanned on a Li—COR Odyssey CLx Imager. Analysis of raw data was carried out in Excel (Microsoft) and Prism (GraphPad). Signal was plotted vs. the decadal logarithm of compound concentration, and IC50 was determined by fitting a 4-parameter sigmoidal concentration response model.

Structure (SMILES) | EC50 [µM]
CCn1c(-c2cccnc2[C@H](C)OC)c2c3cc(ccc31)-c1cc(O)cc(c1)C[C@H](NC(=O)[C@H](C(C)C)N(C)C(=O)[C@@H]1CC1(F)F)C(=O)N1CCC[C@H](N1)C(=O)OCC(C)(C)C2 [Compound A167] | < 5

same assay, conditions: Homo sapiens; NCI-H358 cells, 4 hours; read-out: pERK EC50 (H358 KRAS G12C)

Structure (SMILES) | EC50 [µM]
CCn1c(-c2cccnc2[C@H](C)OC)c2c3cc(ccc31)-c1cc(O)cc(c1)C[C@H](NC(=O)[C@H](C(C)C)N(C)C(=O)[C@@H]1CCNC1)C(=O)N1CCC[C@H](N1)C(=O)OCC(C)(C)C2 [Compound A129] | < 5
CCn1c(-c2cccnc2[C@H](C)OC)c2c3cc(ccc31)-c1cc(O)cc(c1)C[C@H](NC(=O)[C@H](C(C)C)N(C)C(=O)C1CC3CC1CN3)C(=O)N1CCC[C@H](N1)C(=O)OCC(C)(C)C2 (stereo partly drawn) [Compound A133] | < 5
CCn1c(-c2cccnc2[C@H](C)OC)c2c3cc(ccc31)-c1cc(O)cc(c1)C[C@H](NC(=O)[C@H](C(C)C)N(C)C(=O)C1CC13CCNC3)C(=O)N1CCC[C@H](N1)C(=O)OCC(C)(C)C2 (stereo partly drawn) [Compound A148] | < 5
C=C[C@@H]1C[C@]1(N)C(=O)N(C)[C@H](C(=O)N[C@H]1Cc2cc(O)cc(c2)-c2ccc3c(c2)c(c(-c2cccnc2[C@H](C)OC)n3CC)CC(C)(C)COC(=O)[C@@H]2CCCN(N2)C1=O)C(C)C [Compound A149] | < 5
CCn1c(-c2cccnc2[C@H](C)OC)c2c3cc(ccc31)-c1cc(O)cc(c1)C[C@H](NC(=O)[C@H](C(C)C)N(C)C(=O)C1(C#N)CC1)C(=O)N1CCC[C@H](N1)C(=O)OCC(C)(C)C2 [Compound A159] | < 5
CCn1c(-c2cccnc2[C@H](C)OC)c2c3cc(ccc31)-c1cc(O)cc(c1)C[C@H](NC(=O)[C@H](C(C)C)N(C)C(=O)[C@H]1CC1(F)F)C(=O)N1CCC[C@H](N1)C(=O)OCC(C)(C)C2 [Compound A166] | < 5
CCn1c(-c2cccnc2[C@H](C)OC)c2c3cc(ccc31)-c1cc(O)cc(c1)C[C@H](NC(=O)[C@H](C(C)C)N(C)C(=O)C1Cc3cccnc3C1)C(=O)N1CCC[C@H](N1)C(=O)OCC(C)(C)C2 (stereo partly drawn) [Compound A250] | < 5
CCn1c(-c2cnccc2COC)c2c3cc(ccc31)-c1cc(O)cc(c1)C[C@H](NC(=O)C1CCCC1C(F)F)C(=O)N1CCC[C@H](N1)C(=O)OCC(C)(C)C2 (stereo partly drawn) [Compound A261] | < 5
CCN1C[C@@H](C(=O)N(C)[C@H](C(=O)N[C@H]2Cc3cc(O)cc(c3)-c3ccc4c(c3)c(c(-c3cnccc3COC)n4CC)CC(C)(C)COC(=O)[C@@H]3CCCN(N3)C2=O)C(C)C)CC1=O [Compound A262] | < 5
CCn1c(-c2cccnc2[C@H](C)OC)c2c3cc(ccc31)-c1csc(n1)C[C@H](NC(=O)[C@H](C(C)C)N(C)C(=O)N1CC(n3nc(C)cc3C)C1)C(=O)N1CCC[C@H](N1)C(=O)OCC(C)(C)C2 [Compound A297] | < 5
CCn1c(-c2cccnc2[C@H](C)OC)c2c3cc(ccc31)-c1cc(O)cc(c1)C[C@H](NC(=O)[C@H](C(C)C)N(C)C(=O)[C@H]1CC[C@@H](CN(C)C)O1)C(=O)N1CCC[C@H](N1)C(=O)OCC(C)(C)C2 [Compound A397] | < 5
CCn1c(-c2cccnc2[C@H](C)OC)c2c3cc(ccc31)-c1cc(O)cc(c1)C[C@H](NC(=O)[C@H](C(C)C)N(C)C(=O)[C@@H]1OC[C@@H]3CCC[C@@H]31)C(=O)N1CCC[C@H](N1)C(=O)OCC(C)(C)C2 [Compound A407] | < 5
CCn1c(-c2cccnc2[C@H](C)OC)c2c3cc(ccc31)-c1csc(n1)C[C@H](NC(=O)[C@H](C(C)C)N(C)C(=O)N1CCN(C(=O)C3(N(C)C)CC3)CC1)C(=O)N1CCC[C@H](N1)C(=O)OCC(C)(C)C2 [Compound A443] | < 5
CCn1c(-c2cc(N3CCN(C)CC3)cnc2[C@H](C)OC)c2c3cc(ccc31)-c1csc(n1)C[C@H](NC(=O)[C@H](C(C)C)N(C)C(=O)N1CC(N(C)C)C1)C(=O)N1CCC[C@H](N1)C(=O)OCC(C)(C)C2 [Compound A477] | < 5

Continued, values first:

EC50 [µM] | Structure (SMILES)
< 5 | CCn1c(-c2cccnc2[C@H](C)OC)c2c3cc(ccc31)-c1csc(n1)C[C@H](NC(=O)[C@H](C1CCCC1)N(C)C(C)=O)C(=O)N1CCC[C@H](N1)C(=O)OCC(C)(C)C2 [Compound A141]
< 5 | CCn1c(-c2cccnc2[C@H](C)OC)c2c3cc(ccc31)-c1csc(n1)C[C@H](NC(=O)N1CCCC1)C(=O)N1CCC[C@H](N1)C(=O)OCC(C)(C)C2 [Compound A267]
< 5 | CCn1c(-c2cccnc2[C@H](C)OC)c2c3cc(ccc31)-c1csc(n1)C[C@H](NC(=O)[C@H](C(C)C)N(C)C(=O)N1CC[C@@H]1C(=O)NC)C(=O)N1CCC[C@H](N1)C(=O)OCC(C)(C)C2 [Compound A281]
< 5 | CCn1c(-c2cccnc2[C@H](C)OC)c2c3cc(ccc31)-c1csc(n1)C[C@H](NC(=O)[C@H](C(C)C)N(C)C(=O)N1CCOC3(CN(C)C3)C1)C(=O)N1CCC[C@H](N1)C(=O)OCC(C)(C)C2 [Compound A294]
< 5 | CCn1c(-c2cccnc2[C@H](C)OC)c2c3cc(ccc31)-c1csc(n1)C[C@H](NC(=O)[C@H](C(C)C)N(C)C(=O)N1CC(OC(F)F)C1)C(=O)N1CCC[C@H](N1)C(=O)OCC(C)(C)C2 [Compound A302]
< 5 | CCn1c(-c2cccnc2[C@H](C)OC)c2c3cc(ccc31)-c1csc(n1)C[C@H](NC(=O)[C@H](C(C)C)N(C)C(=O)N1CCN(C(=O)CO)CC1)C(=O)N1CCC[C@H](N1)C(=O)OCC(C)(C)C2 [Compound A306]
< 5 | CCn1c(-c2cccnc2[C@H](C)OC)c2c3cc(ccc31)-c1csc(n1)C[C@H](NC(=O)[C@H](C(C)C)N(C)C(=O)N1CCO[C@@H](C)C1)C(=O)N1CCC[C@H](N1)C(=O)OCC(C)(C)C2 [Compound A309]
< 5 | CCN(CC)C1CN(C(=O)N(C)[C@H](C(=O)N[C@H]2Cc3nc(cs3)-c3ccc4c(c3)c(c(-c3cccnc3[C@H](C)OC)n4CC)CC(C)(C)COC(=O)[C@@H]3CCCN(N3)C2=O)C(C)C)C1 [Compound A319]
< 5 | CCn1c(-c2cccnc2[C@H](C)OC)c2c3cc(ccc31)-c1csc(n1)C[C@H](NC(=O)[C@H](C(C)C)N(C)C(=O)N(C)CC(C)C)C(=O)N1CCC[C@H](N1)C(=O)OCC(C)(C)C2 [Compound A332]
< 5 | CCn1c(-c2cccnc2[C@H](C)OC)c2c3cc(ccc31)-c1csc(n1)C[C@H](NC(=O)[C@H](C(C)C)N(C)C(=O)N1CC(NC)C1)C(=O)N1CCC[C@H](N1)C(=O)OCC(C)(C)C2 [Compound A337]
< 5 | CCN(C(=O)N(C)[C@H](C(=O)N[C@H]1Cc2nc(cs2)-c2ccc3c(c2)c(c(-c2cccnc2[C@H](C)OC)n3CC)CC(C)(C)COC(=O)[C@@H]2CCCN(N2)C1=O)C(C)C)C1CC1 [Compound A352]
< 5 | CCn1c(-c2cccnc2[C@H](C)OC)c2c3cc(ccc31)-c1csc(n1)C[C@H](NC(=O)[C@H](C(C)C)N(C)C(=O)N(C)C1CC1)C(=O)N1CCC[C@H](N1)C(=O)OCC(C)(C)C2 [Compound A353]
< 5 | CCn1c(-c2cccnc2[C@H](C)OC)c2c3cc(ccc31)-c1csc(n1)C[C@H](NC(=O)[C@H](C(C)C)N(C)C(=O)N1CC(CO)C1)C(=O)N1CCC[C@H](N1)C(=O)OCC(C)(C)C2 [Compound A356]
< 5 | CCn1c(-c2cccnc2[C@H](C)OC)c2c3cc(ccc31)-c1csc(n1)C[C@H](NC(=O)[C@H]1CCO1)C(=O)N1CCC[C@H](N1)C(=O)OCC(C)(C)C2 [Compound A360]
< 5 | CCn1c(-c2cccnc2[C@H](C)OC)c2c3cc(ccc31)-c1csc(n1)C[C@H](NC(=O)[C@H](C(C)C)N(C)C(=O)N1CC(N)(C#N)C1)C(=O)N1CCC[C@H](N1)C(=O)OCC(C)(C)C2 [Compound A456]
< 5 | CCn1c(-c2cccnc2[C@H](C)OC)c2c3cc(ccc31)-c1csc(n1)C[C@H](NC(=O)[C@H](C(C)C)N(C)C(=O)N1CCCC13CCN(C)CC3)C(=O)N1CCC[C@H](N1)C(=O)OCC(C)(C)C2 [Compound A498]
< 5 | CCn1c(-c2cccnc2[C@H](C)OC)c2c3cc(ccc31)-c1csc(n1)C[C@H](NC(=O)[C@H](C(C)C)N(C)C(=O)N1CC3(CN(C)CCO3)C1)C(=O)N1CCC[C@H](N1)C(=O)OCC(C)(C)C2 [Compound A499]
< 5 | CCn1c(-c2cccnc2[C@H](C)OC)c2c3cc(ccc31)-c1csc(n1)C[C@H](NC(=O)[C@H](C(C)C)N(C)C(=O)N1CCC[C@H]1CN(C)C)C(=O)N1CCC[C@H](N1)C(=O)OCC(C)(C)C2 [Compound A519]

From patent US20250195521A1 (Revolution Medicines, Inc., priority 2020, published 2025)
